Reference: PubChem BioAssay AID2060485 (Molecular Pharmacology Branch, DTP, NCI, 2025)

Tested on: A375 multi-cell spheroids with HUVEC/MSC, viability
Assay: Anticancer human tumor A375 cell line growth inhibition [GQUAD];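 also: spheroids exposed to compounds for seven days before readout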
Details: for IC50: curve of first compound; for viability, T/C: stronger effect = lower value
Method in brief: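 Multi-cell-type spheroids of tumor cells with HUVEC and mesenchymal stem cells, treated with drug combinations. Concentrations descend in half-log steps from near clinical Cmax, or from 10 microM where Cmax is unknown; viability read-out.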

[1] = second compound 0.0316 µM, first compound 0.0316 µM
[2] = second compound 0.0316 µM, first compound 0.1 µM
[3] = second compound 0.0316 µM, first compound 0.316 µM
[4] = second compound 0.0316 µM, first compound 1 µM
[5] = second compound 0.0316 µM, first compound 3.16 µM
[6] = second compound 0.0316 µM, first compound 10 µM
[7] = second compound 0.1 µM, first compound 0.0316 µM
[8] = second compound 0.1 µM, first compound 0.1 µM
[9] = second compound 0.1 µM, first compound 0.316 µM
[10] = second compound 0.1 µM, first compound 1 µM
[11] = second compound 0.1 µM, first compound 3.16 µM
[12] = second compound 0.1 µM, first compound 10 µM
[13] = second compound 0.316 µM, first compound 0.0316 µM
[14] = second compound 0.316 µM, first compound 0.1 µM
[15] = second compound 0.316 µM, first compound 0.316 µM
[16] = second compound 0.316 µM, first compound 1 µM
[17] = second compound 0.316 µM, first compound 3.16 µM
[18] = second compound 0.316 µM, first compound 10 µM
[19] = second compound 1 µM, first compound 0.0316 µM
[20] = second compound 1 µM, first compound 0.1 µM
[21] = second compound 1 µM, first compound 0.316 µM
[22] = second compound 1 µM, first compound 1 µM
[23] = second compound 1 µM, first compound 3.16 µM
[24] = second compound 1 µM, first compound 10 µM
[25] = second compound 3.16 µM, first compound 0.0316 µM
[26] = second compound 3.16 µM, first compound 0.1 µM
[27] = second compound 3.16 µM, first compound 0.316 µM
[28] = second compound 3.16 µM, first compound 1 µM
[29] = second compound 3.16 µM, first compound 3.16 µM
[30] = second compound 3.16 µM, first compound 10 µM
[31] = second compound 10 µM, first compound 0.0316 µM
[32] = second compound 10 µM, first compound 0.1 µM
[33] = second compound 10 µM, first compound 0.316 µM
[34] = second compound 10 µM, first compound 1 µM
[35] = second compound 10 µM, first compound 3.16 µM
[36] = second compound 10 µM, first compound 10 µM

C#Cc1c(F)ccc2cc(O)cc(-c3ncc4c(N5CC6CCC(C5)N6)nc(OCC56CCCN5CC(F)C6)nc4c3F)c12 (centres undefined) + Cc1[nH]c2ccc(F)cc2c1-c1nc2c3cccnc3c3ncccc3c2[nH]1
IC50 (second compound 0.0316 µM): > 10000 nM | IC50 (second compound 0.1 µM): > 10000 nM | IC50 (second compound 0.316 µM): > 10000 nM | IC50 (second compound 1 µM): > 10000 nM | IC50 (second compound 3.16 µM): 5370 nM | IC50 (second compound 10 µM): > 10000 nM | viability, T/C [1]: 102% | viability, T/C [2]: 99.5% | viability, T/C [3]: 97.1% | viability, T/C [4]: 107% | viability, T/C [5]: 97.2% | viability, T/C [6]: 97.1% | viability, T/C [7]: 104% | viability, T/C [8]: 104% | viability, T/C [9]: 99.4% | viability, T/C [10]: 102% | viability, T/C [11]: 101% | viability, T/C [12]: 102% | viability, T/C [13]: 105% | viability, T/C [14]: 104% | viability, T/C [15]: 96.7% | viability, T/C [16]: 101% | viability, T/C [17]: 101% | viability, T/C [18]: 101% | viability, T/C [19]: 113% | viability, T/C [20]: 104% | viability, T/C [21]: 94.2% | viability, T/C [22]: 97.2% | viability, T/C [23]: 105% | viability, T/C [24]: 103% | viability, T/C [25]: 81.8% | viability, T/C [26]: 71.6% | viability, T/C [27]: 74.2% | viability, T/C [28]: 84.7% | viability, T/C [29]: 62.3% | viability, T/C [30]: 35.6% | viability, T/C [31]: 86.5% | viability, T/C [32]: 86.9% | viability, T/C [33]: 94.4% | viability, T/C [34]: 79.8% | viability, T/C [35]: 78% | viability, T/C [36]: 61.8%

CC(=O)O[C@H]1C(=O)[C@@]2(C)[C@H]([C@H](OC(=O)c3ccccc3)[C@]3(O)C[C@H](OC(=O)[C@H](O)[C@@H](NC(=O)c4ccccc4)c4ccccc4)C(C)=C1C3(C)C)[C@]1(OC(C)=O)CO[C@@H]1C[C@@H]2O + Cc1[nH]c2ccc(F)cc2c1-c1nc2c3cccnc3c3ncccc3c2[nH]1
IC50 (second compound 0.0316 µM): 46.8 nM | IC50 (second compound 0.1 µM): 52.3 nM | IC50 (second compound 0.316 µM): 52.5 nM | IC50 (second compound 1 µM): 50.9 nM | IC50 (second compound 3.16 µM): < 31.6 nM | IC50 (second compound 10 µM): < 31.6 nM | viability, T/C [1]: 67.1% | viability, T/C [2]: 16.8% | viability, T/C [3]: 9.66% | viability, T/C [4]: 8.81% | viability, T/C [5]: 9.39% | viability, T/C [6]: 10.1% | viability, T/C [7]: 73.9% | viability, T/C [8]: 19.3% | viability, T/C [9]: 10.3% | viability, T/C [10]: 11.5% | viability, T/C [11]: 7.58% | viability, T/C [12]: 12.6% | viability, T/C [13]: 72.2% | viability, T/C [14]: 21.9% | viability, T/C [15]: 11.6% | viability, T/C [16]: 11.8% | viability, T/C [17]: 10.5% | viability, T/C [18]: 13.2% | viability, T/C [19]: 68.5% | viability, T/C [20]: 23.8% | viability, T/C [21]: 14.5% | viability, T/C [22]: 13.7% | viability, T/C [23]: 13.9% | viability, T/C [24]: 17.3% | viability, T/C [25]: 25.6% | viability, T/C [26]: 16% | viability, T/C [27]: 15% | viability, T/C [28]: 19.8% | viability, T/C [29]: 14.5% | viability, T/C [30]: 12.9% | viability, T/C [31]: 33.6% | viability, T/C [32]: 22.9% | viability, T/C [33]: 18.8% | viability, T/C [34]: 18.8% | viability, T/C [35]: 17.9% | viability, T/C [36]: 18.8%
